Results on six compounds are retold here after patent publication US10745357B2, “Process for preparing quinolin-2-yl-phenylamine derivatives and their salts” (priority 2016, dated 2020).

The nature of data set [1]: Hygroscopicity by Dynamic Vapor Sorption Analysis (DVS). To be noted: for Reversibility of water uptake / weight increase / Humidity absorption (in words) / Weight increase (hygroscopicity) / Changes of the crystalline form associated with water uptake: DVS; for Humidity absorption (in words): 0 to 95% RH; for Weight increase (hygroscopicity): humidity 0 to 95% RH, maximum. In kind it is physicochemical. The protocol:
The hygroscopicity was determined by Dynamic Vapor Sorption Analysis (DVS). Approximately 200 mg of each solid state were weight on a sample plate and subjected to the apparatus. The humidity inside was varied in a range from 0 to 95% RH and the mass change (dm [%]) of the samples measured continuously.

Data set [2] can be described thus: Aqueous solubility in four aqueous buffers with distinct pH values. It counts as physicochemical. To be noted: for solubility at 15 min / solubility at 1 h: thermodynamic from solid; for Solubility in aqueous solutions (in words): summary of the four buffers. The protocol: The solubility properties of the generated solid states were studied in four different aqueous buffers with distinct pH values. Approximately 250 mg of each sample was mixed with 2.5 ml solvent and stirred.

The test system of the next data set is normal cellular splicing. Conditions: cited from earlier work.
The conditions of data set [3]: phase I trials; dose levels up to 200 mg; without clinically significant abnormal results; cited from earlier work.
A further data set deals with HIV-1 replication. To be noted: prevents export of viral RNA from nucleus to cytoplasm in infected cells; cited from earlier work.
Another data set relates to HIV. To be noted: preclinical; lasted for several weeks after cessation of treatment; cited from earlier work.
Setting [4] is: aqueous buffer, fassif, FaSSiF (SIF-powder), 15 min.
Where [5] appears, read: aqueous buffer, fassif, FaSSiF (SIF-powder), 1 h.
Setting [6] is: aqueous buffer, pH 2.2, simulated gastric fluid, 0.01N HCl pH ~2.2, 15 min.
Setting [7] is: aqueous buffer, pH 2.2, simulated gastric fluid, 0.01N HCl pH ~2.2, 1 h.
Where [8] appears, read: aqueous buffer, pH 4.5, aqueous buffer, 20 mM Na-acetate pH 4.5, 15 min.
[9] abbreviates: aqueous buffer, pH 4.5, aqueous buffer, 20 mM Na-acetate pH 4.5, 1 h.
Setting [10] is: aqueous buffer, pH 6.8, aqueous buffer, 50 mM KH2PO4 pH 6.8, 15 min.
The mark [11] stands for this setting: aqueous buffer, pH 6.8, aqueous buffer, 50 mM KH2PO4 pH 6.8, 1 h.

Structures are written as SMILES. Values after ≈ are worked out from the molar mass of the structure shown.

As for `FC(F)(F)Oc1ccc(Nc2ccc3cccc(Cl)c3n2)cc1.O=S(=O)(O)O` [H2SO4, (8-chloro-quinolin-2-yl)-(4-trifluoromethoxyphenyl)-amine], in data set [1], the “Reversibility of water uptake / weight increase” value is reported as “reversible”. Also, the “Humidity absorption (in words)” value in data set [1] was “low hygroscopicity”. In addition, the “Weight increase (hygroscopicity)” value in data set [1] is listed as at most 3.2%. Also, the “Relative weight change (dm)” value in data set [1] (RH 40% (start)) is 0%; in data set [1] (RH 40 → 0% (first step to 0)), −0.11%; in data set [1] (RH 95 → 40% (desorption)), 0.03%; in data set [1] (RH → 0% (second step to 0)), −0.14%; in data set [1] (RH → 35% (final step)) it was −0.04%; in data set [1] (RH → 75%) it was 0.32%. The “Relative weight change (dm)” value in data set [1] (RH → 95%) came out at 3.2%. Moreover, the solubility at 15 min in data set [2] (aqueous buffer, 20 mM Na-acetate pH 4.5, 15 min) is 0.093 mg/mL; in data set [2] (aqueous buffer, 50 mM KH2PO4 pH 6.8, 15 min), 0.035 mg/mL; in data set [2] (simulated gastric fluid, 0.01N HCl pH ~2.2, 15 min), 0.089 mg/mL; in data set [2] (FaSSiF (SIF-powder), 15 min), 0.109 mg/mL. In addition, the solubility at 1 h in data set [2] (aqueous buffer, 20 mM Na-acetate pH 4.5, 1 h) was 0.139 mg/mL; in data set [2] (aqueous buffer, 50 mM KH2PO4 pH 6.8, 1 h) it was 0.114 mg/mL; in data set [2] (simulated gastric fluid, 0.01N HCl pH ~2.2, 1 h), 0.152 mg/mL; in data set [2] (FaSSiF (SIF-powder), 1 h) it was 0.157 mg/mL. In addition, in data set [2], the “Solubility in aqueous solutions (in words)” value is “first-rate solubility”.

In the case of `Cl.FC(F)(F)Oc1ccc(Nc2ccc3cccc(Cl)c3n2)cc1` [HCl, (8-chloro-quinolin-2-yl)-(4-trifluoromethoxyphenyl)-amine], the “Changes of the crystalline form associated with water uptake” value (“Changes” for short) in data set [1] is “significant changes”. In data set [1], the “Reversibility of water uptake / weight increase” value was “irreversible”. For the same compound, the “Relative weight change (dm)” value in data set [1] (RH 40% (start)) was 0%; in data set [1] (RH 40 → 0% (first step to 0)), −0.11%; in data set [1] (RH 95 → 40% (desorption)), 7.8%; in data set [1] (RH → 0% (second step to 0)), 2.8%; in data set [1] (RH → 35% (final step)) it was 5.1%; in data set [1] (RH → 75%) it was 1.7%. For the same compound, in data set [1] (RH → 95%), the “Relative weight change (dm)” value is given as 14.3%. Moreover, the solubility at 15 min in data set [2] (setting [4]) was 0.111 mg/mL; in data set [2] (setting [6]), 0.116 mg/mL; in data set [2] (setting [8]), 0.074 mg/mL; in data set [2] (setting [10]), 0.068 mg/mL. Further, the solubility at 1 h in data set [2] (setting [5]) was 0.198 mg/mL; in data set [2] (setting [7]), 0.147 mg/mL; in data set [2] (setting [9]), 0.136 mg/mL; in data set [2] (setting [11]), 0.104 mg/mL. The “Solubility in aqueous solutions (in words)” value in data set [2] is on record as “first-rate solubility”.

On to `FC(F)(F)Oc1ccc(Nc2ccc3cccc(Cl)c3n2)cc1.O=S(=O)(O)c1ccccc1` [besylate, (8-chloro-quinolin-2-yl)-(4-trifluoromethoxyphenyl)-amine], for which, in data set [1], the “Changes” value is reported as “only minor”. The “Reversibility of water uptake / weight increase” value in data set [1] was “reversible”. Besides, the “Humidity absorption (in words)” value in data set [1] is on record as “low hygroscopicity”. The “Weight increase (hygroscopicity)” value in data set [1] was “up to 1.9%”. Also, the “Relative weight change (dm)” value in data set [1] (RH 40% (start)) is recorded as 0%; in data set [1] (RH 40 → 0% (first step to 0)), −0.04%; in data set [1] (RH 95 → 40% (desorption)), 1.1%; in data set [1] (RH → 0% (second step to 0)) it was −0.09%; in data set [1] (RH → 35% (final step)), 1.0%; in data set [1] (RH → 75%), 0.19%. The “Relative weight change (dm)” value in data set [1] (RH → 95%) came out at 1.9%. For the same compound, the solubility at 15 min was 0.077 mg/mL in data set [2] (setting [4]), 0.023 mg/mL in data set [2] (setting [6]), 0.024 mg/mL in data set [2] (setting [8]) and 0.003 mg/mL in data set [2] (setting [10]). The solubility at 1 h is 0.045 mg/mL in data set [2] (setting [5]), 0.032 mg/mL in data set [2] (setting [7]), 0.016 mg/mL in data set [2] (setting [9]) and 0.007 mg/mL in data set [2] (setting [11]).

With `FC(F)(F)Oc1ccc(Nc2ccc3cccc(Cl)c3n2)cc1` [free base, (8-chloro-quinolin-2-yl)-(4-trifluoromethoxy-phenyl)-amine], the “Selectivity / effect on normal cellular splicing” value in the data set with normal cellular splicing is reported as “doesn't affect normal cellular splicing”. In addition, in data set [3], the Tolerability result is “well tolerated”. In addition, in the data set on HIV-1 replication, the HIV replication result was “inhibits HIV replication”. Moreover, in the data set with HIV, the “Reduction of viral load” value is on record as “sustained reduction of viral load”. Further, in data set [1], the “Humidity absorption (in words)” value is reported as “absorbs more or less not any humidity”. Also, the “Relative weight change (dm)” value came to 0% in data set [1] (RH 40% (start)); 0% in data set [1] (RH 40 → 0% (first step to 0)); 0.03% in data set [1] (RH 95 → 40% (desorption)); 0.02% in data set [1] (RH → 0% (second step to 0)); 0.02% in data set [1] (RH → 35% (final step)); 0.02% in data set [1] (RH → 75%). The “Relative weight change (dm)” value in data set [1] (RH → 95%) is on record as 0.15%. The Solubility in data set [2] (0.01N HCl pH ~2.2, 15 min) is 0.003 mg/mL (≈ 8.86 µM); in data set [2] (0.01N HCl pH ~2.2, 1 h), 0.004 mg/mL (≈ 11.8 µM). This compound yielded a solubility at 15 min in data set [2] (setting [4]) of 0.064 mg/mL (≈ 189 µM). Also, the solubility at 1 h in data set [2] (setting [5]) was found to be 0.061 mg/mL (≈ 180 µM). The “Solubility in aqueous solutions with different pH-values” in data set [2] (compound from reworked WO 2010/143169 procedure, recrystallized, pH values simulating physiological conditions) is recorded as “virtual insolubility”.

For `FC(F)(F)Oc1ccc(Nc2ccc3cccc(Cl)c3n2)cc1` [hemi-edisylate, (8-chloro-quinolin-2-yl)-(4-trifluoromethoxyphenyl)-amine], the “Changes” value in data set [1] is “significant changes”. The “Reversibility of water uptake / weight increase” value in data set [1] was “irreversible”. Moreover, the “Relative weight change (dm)” value is given as 0% in data set [1] (RH 40% (start)); −0.65% in data set [1] (RH 40 → 0% (first step to 0), listed as Hemiedisylate salt); 3.5% in data set [1] (RH 95 → 40% (desorption), listed as Hemiedisylate salt); 0.4% in data set [1] (RH → 0% (second step to 0), listed as Hemiedisylate salt); 2.9% in data set [1] (RH → 35% (final step), listed as Hemiedisylate salt); 0.74% in data set [1] (RH → 75%, listed as Hemiedisylate salt). The “Relative weight change (dm)” value in data set [1] (RH → 95%, listed as Hemiedisylate salt) is given as 36.2%. Besides, the Solubility in data set [2] (0.01N HCl pH ~2.2, 15 min) came out at 0.075 mg/mL (≈ 221 µM); in data set [2] (0.01N HCl pH ~2.2, 1 h), 0.065 mg/mL (≈ 192 µM). The solubility at 15 min in data set [2] (setting [8]) was 0.048 mg/mL (≈ 142 µM); in data set [2] (setting [10]) it was 0.018 mg/mL (≈ 53.1 µM). Moreover, the solubility at 1 h in data set [2] (setting [9]) turned out to be 0.05 mg/mL (≈ 148 µM); in data set [2] (setting [11]), 0.023 mg/mL (≈ 67.9 µM).

As to `Cc1ccc(S(=O)(=O)O)cc1.FC(F)(F)Oc1ccc(Nc2ccc3cccc(Cl)c3n2)cc1` [tosylate, (8-chloro-quinolin-2-yl)-(4-trifluoromethoxyphenyl)-amine], in data set [1], the “Humidity absorption (in words)” value is on record as “absorbs more or less not any humidity”. Besides, the “Relative weight change (dm)” value was 0% in data set [1] (RH 40% (start)); −0.05% in data set [1] (RH 40 → 0% (first step to 0)); −0.03% in data set [1] (RH 95 → 40% (desorption)); −0.09% in data set [1] (RH → 0% (second step to 0)); −0.05% in data set [1] (RH → 35% (final step)); 0.05% in data set [1] (RH → 75%). For the same compound, the “Relative weight change (dm)” value in data set [1] (RH → 95%) worked out at 0.24%. In addition, the solubility at 15 min in data set [2] (setting [4]) is 0.03 mg/mL; in data set [2] (setting [6]), 0.006 mg/mL. In addition, the solubility at 1 h in data set [2] (setting [5]) is 0.013 mg/mL; in data set [2] (setting [7]) it was 0.01 mg/mL; in data set [2] (setting [9]) it was 0.003 mg/mL.

What is called solubility is the dissolved amount per volume that the medium holds. Higher therefore signals a readily soluble substance. By Solubility is commonly meant the concentration that dissolves in the medium under given conditions. A high value points to a readily soluble substance.
